In patent publication US10172812B2, “Compounds and methods for treating muscular dystrophy and other disorders” (The Charlotte Mecklenburg Hospital Authority, priority 2017, dated 2019):
Entries after “also recorded” stand apart in the source; their conditions may differ.

What was measured:
Assay type in all cases: in vivo, mouse
[1] = system: FKRP-P448L mutant dystrophic mice; assay: Treadmill exercise in FKRP P448L mutant mice; conditions: 1 year treatment, vs saline-treated cohort
Excerpt: FIG. 6. […] Saline treated control, column 1; C57 normal control, column 8).
(§1) This invention applies tamoxifen and raloxifene for clinical use in FKRP mutant dystrophic mouse models for the treatment of dystroglycanopathies, specifically those caused by mutations in the FKRP gene. Mutations in the FKRP gene cause muscular dystrophy with the lack of functional glycosylation of alpha-dystroglycan (α-DG) as the characteristic biochemical marker in the diseased tissues. Mouse models with the FKRP mutations present in patients show the same biochemical feature as patients' tissues, most prominently in muscles (Chan Y M, Hum Mol Genet 2010, 19(20): 3995-4006; Blaeser A, Hum Genet 2013, 132(8): 923-934). […] Histologically, the diseased muscles undergo continuous degeneration as indicated by the presence of degenerating muscle fibers, variation in fiber size, presence of centrally nucleated fibers (a result of regeneration which is the consequence of muscle damage), inflammatory cells and an increase in non-muscle fiber connective tissues (FIG. 1). […] The best results were obtained with 5-10 mg/kg tamoxifen and 50 mg/kg raloxifene, which would be equivalent to human equivalent dose (HED) of about 0.5 mg/kg for tamoxifen and 5 mg/kg for raloxifene.

[2] = system: FKRP-P448L mutant dystrophic mice; assay: Muscle histology (H&E staining) in FKRP P448L mutant mice; conditions: for fibrotic streaks in cardiac muscle / histology (H&E) / inflammation, degeneration and fibrotic tissue in skeletal muscle: 1 year of treatment, 5 day a week; for inflammation, degeneration and fibrotic tissue in muscle / muscle pathology (H&E): 6 month treatment, 5 days a week, 10 mg/kg, vs saline
Method: FIG. 1. […] C57 normal mouse muscles were used as controls. Saline, mice treated with saline as negative control. […] Hematoxylin and eosin (H&E) staining was used.
FIG. 4. […] H&E staining was used. The therapeutic effect is best seen with 10 mg/kg tamoxifen treatment. […] C57 normal mouse muscles were used as controls. P448-Saline, mice treated with saline as negative control.
as §1, with “raloxifene. […] The improvement in muscle function and pathology is even greater after 1 year treatment.” for “raloxifene.”

[3] = system: FKRP-P448L mutant dystrophic mice; assay: Overall therapeutic effect (muscle pathology and function) on feeding FKRP-P448L mutant mice; conditions: for dose giving the best results / muscle pathology and function: feeding 5 days a week; for dose relation of the therapeutic effects: tamoxifen 2, 5, 10, 50 mg/kg/day, raloxifene 10, 50, 100 mg/kg/day
Excerpt: as §1, with “raloxifene. […] The improvement in muscle function and pathology is even greater after 1 year treatment.” for “raloxifene.”

[4] = system: FKRP-P448L mutant dystrophic mice; assay: Grip force measurement in FKRP P448L mutant mice
Excerpt: FIG. 3. […] C57 normal mice muscles as controls. Saline, mice treated with saline as negative control.
FIG. 5. […] Saline treated control, column 1; C57 normal control, column 8).
as §1

[5] = system: glycosylated alpha-dystroglycan (α-DG); assay: Immunohistochemistry with monoclonal antibody IIH6 on muscles of treated FKRP mutant mice
Excerpt: FIG. 2. […] C57 normal mouse muscles were used as controls. Saline, mice treated with saline as negative control. The positive staining is seen surrounding the fiber membrane and a few revertant fibers are observed in the saline treated controls.
as §1, with “raloxifene. […] The improvement in muscle function and pathology is even greater after 1 year treatment.” for “raloxifene.”

[6] = 50 mg/kg/day, 1 year treatment; vs saline-treated cohort
[7] = 6 months of treatment, 5 days a week, 10 mg/kg; vs saline
[8] = 2 mg/kg/day, 1 year treatment; vs saline-treated cohort

## O=C(c1ccc(OCCN2CCCCC2)cc1)c1c(-c2ccc(O)cc2)sc2cc(O)ccc12 [raloxifene]
[1]; 50 mg/kg/day
  treadmill running distance: Significant improvement
  treadmill running time: Significant improvement
[1]; 100 mg/kg/day
  treadmill running distance: Significant improvement
  treadmill running time: Significant improvement
[2]; 50 mg/kg/day
  fibrotic streaks in cardiac muscle: Reduced fibrotic streaks
  histology (H&E): Improvement in histology
  inflammation, degeneration and fibrotic tissue in skeletal muscle: Reduction
[2]
  inflammation, degeneration and fibrotic tissue in muscle: Reduction
  muscle pathology (H&E): significantly improve muscle pathology
[3]
  dose giving the best results: 50 mg/kg
  muscle pathology and function: significantly improved muscle pathology and function
  dose relation of the therapeutic effects: dose-related with increasing efficacy
[4]; [6]
  grip force measurement: Significant improvement
[4]; 100 mg/kg/day, 1 year treatment; vs saline-treated cohort
  grip force measurement: Significant improvement
[4]; [7]
  muscle function by grip force measurement: improve muscle function
[5]; [7]
  levels of glycosylated alpha-dystroglycan (α-DG) detected with IIH6: enhance the levels of glycosylated alpha-dystroglycan
  number of IIH6 positive fibers: clearly increased

## CC/C(=C(\c1ccccc1)c1ccc(OCCN(C)C)cc1)c1ccccc1 [tamoxifen]
[1]; 2 mg/kg/day
  treadmill running distance: Significant improvement
  treadmill running time: did not reach significance
[1]; 10 mg/kg/day
  treadmill running distance: Significant improvement
  treadmill running time: Significant improvement
[1]; 50 mg/kg/day
  treadmill running distance: Significant improvement
  treadmill running time: Significant improvement
[2]; 10 mg/kg/day
  fibrotic streaks in cardiac muscle: Reduced fibrotic streaks
  histology (H&E): Improvement in histology
  inflammation, degeneration and fibrotic tissue in skeletal muscle: Reduction
[2]
  inflammation, degeneration and fibrotic tissue in muscle: Reduction
  muscle pathology (H&E): significantly improve muscle pathology
[3]
  dose giving the best results: 5 to 10 mg/kg
  muscle pathology and function: significantly improved muscle pathology and function
  dose relation of the therapeutic effects: dose-related with increasing efficacy
[4]; [8]
  grip force measurement (other than hindlimb): Significant improvement
  grip force measurement, hindlimb: did not reach significance
[4]; 10 mg/kg/day, 1 year treatment; vs saline-treated cohort
  grip force measurement: Significant improvement
[4]; [6]
  grip force measurement: Significant improvement
[4]; 6 months of treatment, 5 days a week, 10 mg/kg; vs saline; 10 mg/kg
  muscle function by grip force measurement: improved muscle function
[5]; 6 months of treatment, 5 days a week, 10 mg/kg, vs saline
  levels of glycosylated alpha-dystroglycan (α-DG) detected with IIH6: enhance the levels of glycosylated alpha-dystroglycan; also recorded: enhanced expression of alpha-DG
[5]; [7]
  number of IIH6 positive fibers: clearly increased
